# Assay results as given in ChEMBL document CHEMBL4229518, “New β-lactam - Tetramic acid hybrids show promising antibacterial activities” (Bioorg Med Chem Lett, 2018).
# How the values were obtained:
# Type in all cases: functional
# [1] = test system: Escherichia coli; assay: Antimicrobial activity against Escherichia coli isolate SJ 6 after 18 to 20 hrs by microbroth dilution method
# [2] = test system: Escherichia coli; assay: Antimicrobial activity against Escherichia coli ATCC 35218 expressing TEM-1 beta lactamases after 18 to 20 hrs by microbroth dilution method
# [3] = test system: Enterobacter cloacae; assay: Antimicrobial activity against Enterobacter cloacae ATCC 13047 after 18 to 20 hrs by microbroth dilution method; details: subsp. cloacae ATCC 13047
# [4] = test system: Escherichia coli; assay: Antimicrobial activity against Escherichia coli isolate SJ 5 after 18 to 20 hrs by microbroth dilution method
# [5] = test system: Escherichia coli; assay: Antimicrobial activity against Escherichia coli isolate SJ 2 after 18 to 20 hrs by microbroth dilution method
# [6] = test system: Klebsiella pneumoniae; assay: Antimicrobial activity against Klebsiella pneumoniae isolate SJ 1 after 18 to 20 hrs by microbroth dilution method
# [7] = test system: Escherichia coli; assay: Antimicrobial activity against Escherichia coli ATCC 25922 after 18 to 20 hrs by microbroth dilution method
# [8] = test system: Acinetobacter baumannii; assay: Antimicrobial activity against Acinetobacter baumannii ATCC 19606 after 18 to 20 hrs by microbroth dilution method; details: ATCC 19606 = CIP 70.34 = JCM 6841
# [9] = test system: Escherichia coli; assay: Antimicrobial activity against Escherichia coli isolate SJ 3 after 18 to 20 hrs by microbroth dilution method
# [10] = test system: Pseudomonas aeruginosa; assay: Antimicrobial activity against Pseudomonas aeruginosa PAO1 after 18 to 20 hrs by microbroth dilution method
# [11] = test system: Bacillus subtilis; assay: Antimicrobial activity against Bacillus subtilis ATCC 23857 after 18 to 20 hrs by microbroth dilution method
# [12] = test system: Klebsiella pneumoniae; assay: Antimicrobial activity against Klebsiella pneumoniae isolate SJ 5 after 18 to 20 hrs by microbroth dilution method
# [13] = test system: Enterococcus faecalis; assay: Antimicrobial activity against Enterococcus faecalis ATCC 33186 after 18 to 20 hrs by microbroth dilution method
# [14] = test system: Staphylococcus aureus; assay: Antimicrobial activity against methicillin-susceptible Staphylococcus aureus NRS70 after 18 to 20 hrs by microbroth dilution method
# [15] = test system: Klebsiella pneumoniae; assay: Antimicrobial activity against Klebsiella pneumoniae ATCC 33495 after 18 to 20 hrs by microbroth dilution method
# [16] = test system: Escherichia coli; assay: Antimicrobial activity against Escherichia coli isolate SJ 1 after 18 to 20 hrs by microbroth dilution method
# [17] = test system: Proteus mirabilis; assay: Antimicrobial activity against Proteus mirabilis ATCC 25933 after 18 to 20 hrs by microbroth dilution method
# [18] = test system: Staphylococcus aureus; assay: Antimicrobial activity against methicillin-susceptible Staphylococcus aureus ATCC 29213 after 18 to 20 hrs by microbroth dilution method
# [19] = test system: Klebsiella pneumoniae; assay: Antimicrobial activity against Klebsiella pneumoniae isolate SJ 3 after 18 to 20 hrs by microbroth dilution method
# [20] = test system: Escherichia coli; assay: Antimicrobial activity against tolC deficient Escherichia coli JW5503-1 after 18 to 20 hrs by microbroth dilution method
# [21] = test system: Escherichia coli; assay: Antimicrobial activity against Escherichia coli BW25113 after 18 to 20 hrs by microbroth dilution method
# [22] = test system: Klebsiella pneumoniae; assay: Antimicrobial activity against Klebsiella pneumoniae isolate SJ 4 after 18 to 20 hrs by microbroth dilution method
# [23] = test system: Stenotrophomonas maltophilia; assay: Antimicrobial activity against Stenotrophomonas maltophilia ATCC 700475 after 18 to 20 hrs by microbroth dilution method
# [24] = test system: Streptococcus pyogenes; assay: Antimicrobial activity against Streptococcus pyogenes ATCC 700294 after 18 to 20 hrs by microbroth dilution method; details: M1 GAS
# [25] = test system: Klebsiella pneumoniae; assay: Antimicrobial activity against Klebsiella pneumoniae isolate SJ 2 after 18 to 20 hrs by microbroth dilution method
# [26] = test system: Bacillus cereus; assay: Antimicrobial activity against Bacillus cereus ATCC 14579 after 18 to 20 hrs by microbroth dilution method
# [27] = test system: Bacillus anthracis; assay: Antimicrobial activity against Bacillus anthracis Sterne 34F2 after 18 to 20 hrs by microbroth dilution method
# [28] = test system: Streptococcus pneumoniae; assay: Antimicrobial activity against Streptococcus pneumoniae R6 after 18 to 20 hrs by microbroth dilution method
# [29] = test system: Escherichia coli; assay: Antimicrobial activity against Escherichia coli isolate SJ 4 after 18 to 20 hrs by microbroth dilution method
Structure (SMILES),MIC [1] [µg/mL],MIC [2] [µg/mL],MIC [3] [µg/mL],MIC [4] [µg/mL],MIC [5] [µg/mL],MIC [8] [µg/mL],MIC [10] [µg/mL],MIC [11] [µg/mL],MIC [13] [µg/mL],MIC [14] [µg/mL],MIC [15] [µg/mL],MIC [17] [µg/mL],MIC [18] [µg/mL],MIC [20] [µg/mL],MIC [21] [µg/mL],MIC [23] [µg/mL],MIC [24] [µg/mL],MIC [26] [µg/mL],MIC [27] [µg/mL],MIC [28] [µg/mL],other results
CC1(C)S[C@@H]2[C@H](NC(=O)[C@H](N)c3ccccc3)C(=O)N2[C@H]1C(=O)O [AMPICILLIN],> 200,> 200,> 200,> 200,> 200,50,200,< 0.2,0.78,25,100,< 0.2,< 0.2,1.56,3.13,6.25,< 0.2,25,< 0.2,< 0.2,MIC [6]: > 200 µg/mL; MIC [7]: 3.13 µg/mL; MIC [9]: > 200 µg/mL; MIC [12]: > 200 µg/mL; MIC [16]: > 200 µg/mL; MIC [19]: 100 µg/mL; MIC [22]: 100 µg/mL; MIC [25]: 25 µg/mL; MIC [29]: > 200 µg/mL
CC1=C(C(=O)O)N2C(=O)[C@@H](NC(=O)[C@H](NC(=O)C3=C(O)C(CC(C)C)NC3=O)c3ccccc3)[C@H]2SC1 (some centres undefined),,,> 200,,,100,> 200,25,200,100,> 200,100,12.5,100,> 200,100,3.13,> 200,200,100,
N[C@@H](C(=O)N[C@@H]1C(=O)N2C(C(=O)O)=C(Cl)CS[C@H]12)c1ccccc1 [CEFACLOR ANHYDROUS],> 200,50,> 200,50,200,200,> 200,< 0.2,25,100,1.56,3.13,1.56,6.25,6.25,> 200,0.39,> 200,0.39,0.78,MIC [6]: 200 µg/mL; MIC [7]: 12.5 µg/mL; MIC [9]: 12.5 µg/mL; MIC [12]: > 200 µg/mL; MIC [16]: 50 µg/mL; MIC [19]: 1.56 µg/mL; MIC [22]: 1.56 µg/mL; MIC [25]: 1.56 µg/mL; MIC [29]: > 200 µg/mL
CO[C@@]1(NC(=O)C2SC(=C(C(N)=O)C(=O)O)S2)C(=O)N2C(C(=O)O)=C(CSc3nnnn3C)CS[C@@H]21 (some centres undefined) [CEFOTETAN],25,< 0.2,,12.5,1.56,100,> 200,,,,< 0.2,< 0.2,,1.56,25,,,,,,MIC [6]: < 0.2 µg/mL; MIC [7]: 1.56 µg/mL; MIC [9]: 0.78 µg/mL; MIC [12]: 1.56 µg/mL; MIC [16]: 0.39 µg/mL; MIC [19]: 0.39 µg/mL; MIC [22]: 0.39 µg/mL; MIC [25]: < 0.2 µg/mL; MIC [29]: 1.56 µg/mL
CC1=C(C(=O)O)N2C(=O)[C@@H](NC(=O)CCNC(=O)C3=C(O)C(CC(C)C)NC3=O)[C@H]2SC1 (some centres undefined),,,> 200,,,> 200,> 200,100,> 200,100,> 200,> 200,50,> 200,> 200,> 200,> 200,> 200,200,200,
CO[C@@]1(NC(=O)CSCC#N)C(=O)N2C(C(=O)O)=C(CSc3nnnn3C)CS[C@@H]21 [CEFMETAZOLE],12.5,0.39,,6.25,0.78,25,> 200,,,,3.13,0.39,,1.56,0.39,,,,,,MIC [6]: 0.39 µg/mL; MIC [7]: 0.78 µg/mL; MIC [9]: 0.78 µg/mL; MIC [12]: 1.56 µg/mL; MIC [16]: 0.39 µg/mL; MIC [19]: 0.39 µg/mL; MIC [22]: 0.78 µg/mL; MIC [25]: 0.39 µg/mL; MIC [29]: 0.78 µg/mL
CC(C)CC1NC(=O)C(C(=O)NCCCC(=O)N[C@@H](C(=O)N[C@@H]2C(=O)N3[C@@H]2SC(C)(C)[C@@H]3C(=O)O)c2ccccc2)=C1O (some centres undefined),,,> 200,,,100,50,3.13,25,50,> 200,1.56,0.78,12.5,25,25,0.39,25,3.13,< 0.2,
